Results from patent US10799475B2, “Substituted phenyl aziridine precursor analogs for inhibiting androgen-independent prostate cancer cell growth” (Northwestern University, priority 2007, dated 2020).

Experiments:
AR = target: T1, AR (Homo sapiens, UniProt P10275, T878A); test: AR nuclear translocation, Western blot and immunofluorescence in LNCaP cells; format: cell-based; conditions: 16 hours
T1 construct: epithelial cells expressing endogenous AR, LNCaP prostate cells were studied; endogenous in cells; host or cells: LNCaP
T1 sequence (P10275 1-920 T878A): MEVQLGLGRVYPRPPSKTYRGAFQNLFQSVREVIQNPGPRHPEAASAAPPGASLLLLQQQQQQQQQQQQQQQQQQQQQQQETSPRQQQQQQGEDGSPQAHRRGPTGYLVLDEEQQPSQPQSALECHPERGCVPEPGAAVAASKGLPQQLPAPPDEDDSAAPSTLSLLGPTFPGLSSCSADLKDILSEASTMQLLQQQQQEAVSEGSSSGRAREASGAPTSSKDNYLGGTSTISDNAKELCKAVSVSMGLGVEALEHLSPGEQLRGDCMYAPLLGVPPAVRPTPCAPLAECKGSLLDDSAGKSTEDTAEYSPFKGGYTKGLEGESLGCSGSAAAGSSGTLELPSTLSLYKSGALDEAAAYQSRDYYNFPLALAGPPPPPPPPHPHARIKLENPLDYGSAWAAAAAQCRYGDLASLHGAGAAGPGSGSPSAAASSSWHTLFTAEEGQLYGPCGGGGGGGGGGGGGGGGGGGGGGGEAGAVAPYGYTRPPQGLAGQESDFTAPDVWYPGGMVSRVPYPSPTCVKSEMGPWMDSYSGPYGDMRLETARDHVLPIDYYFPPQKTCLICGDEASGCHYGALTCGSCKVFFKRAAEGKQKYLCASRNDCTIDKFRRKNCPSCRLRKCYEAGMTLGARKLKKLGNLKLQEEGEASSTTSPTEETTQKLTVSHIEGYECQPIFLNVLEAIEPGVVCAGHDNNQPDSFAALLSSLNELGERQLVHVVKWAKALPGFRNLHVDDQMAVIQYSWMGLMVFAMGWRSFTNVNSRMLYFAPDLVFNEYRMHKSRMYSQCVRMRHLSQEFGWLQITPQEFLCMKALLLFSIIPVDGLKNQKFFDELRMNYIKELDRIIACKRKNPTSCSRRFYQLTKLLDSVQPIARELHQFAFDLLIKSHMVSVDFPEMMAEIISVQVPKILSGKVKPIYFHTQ

PC cells = format: cell-based, human; conditions: 72 hours
LNCaP cells = format: cell-based, human; conditions: 5 μM CpdA, 1-12 days
PC3 cells = format: cell-based, human
PWR-1E cells = format: cell-based; conditions: tested range of concentrations
LNCaP-GR cells = format: cell-based, human; conditions: monolayer and colony-forming assay, data not shown
GR [1] = target: T2, GR (Homo sapiens, UniProt P04150); conditions: cited from earlier work
T2 sequence (P04150 1-777): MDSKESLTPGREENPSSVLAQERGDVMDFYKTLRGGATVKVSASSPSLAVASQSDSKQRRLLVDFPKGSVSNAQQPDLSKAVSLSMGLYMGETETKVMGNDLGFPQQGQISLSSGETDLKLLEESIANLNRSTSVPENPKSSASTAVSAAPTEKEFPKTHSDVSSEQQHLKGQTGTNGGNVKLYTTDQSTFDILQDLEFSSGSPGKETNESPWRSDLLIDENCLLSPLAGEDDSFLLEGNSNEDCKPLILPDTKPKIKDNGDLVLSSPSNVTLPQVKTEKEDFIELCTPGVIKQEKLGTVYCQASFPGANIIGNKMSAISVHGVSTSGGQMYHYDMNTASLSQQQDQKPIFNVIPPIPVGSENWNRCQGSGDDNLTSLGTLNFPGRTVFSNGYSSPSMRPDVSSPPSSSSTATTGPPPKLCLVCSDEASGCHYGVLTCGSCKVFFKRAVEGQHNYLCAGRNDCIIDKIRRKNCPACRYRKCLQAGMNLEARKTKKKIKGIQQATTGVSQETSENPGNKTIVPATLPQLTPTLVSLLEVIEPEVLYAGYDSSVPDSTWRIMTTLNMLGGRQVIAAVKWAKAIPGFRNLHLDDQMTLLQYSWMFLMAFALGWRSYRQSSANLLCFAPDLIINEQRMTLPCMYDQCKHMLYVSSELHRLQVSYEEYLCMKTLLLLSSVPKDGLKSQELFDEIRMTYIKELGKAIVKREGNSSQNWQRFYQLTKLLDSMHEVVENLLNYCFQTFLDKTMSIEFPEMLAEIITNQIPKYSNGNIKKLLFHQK

GR [2] = target: T2, GR; test: EMSA of GR-DNA binding in LNCaP-GR cells; format: cell-based; parameters: expressed in transfected cells; host or cells: LNCaP-GR (lentiviral GR); also DU145 and PC3 (endogenous GR); conditions: CpdA 10^−5 M, 4 hours

SMILES: CNCC(Cl)c1ccc(OC(C)=O)cc1.Cl (stereo not drawn) [CpdA, 2-(4-acetoxyphenyl)-2-chloro-N-methyl-ethylammonium chloride]
- AR nuclear translocation (AR): induce AR nuclear translocation
- concentration range of strong cytostatic effect (PC cells): 2−10 μM
- growth inhibition (LNCaP cells): strong growth inhibition
- growth inhibition vs vehicle-treated control (PC3 cells): 65-85%
- growth inhibition, concentration-dependent (PC3 cells; CpdA 10^−9 M−2×10^−5 M, 72 hours): strongly inhibit
- growth inhibition (PWR-1E cells): rather resistant
- sensitivity to growth inhibition vs control cells infected with empty virus (LNCaP-GR cells): significantly more sensitive
- competition for GR binding (GR [1]): competes with glucocorticoids for GR binding
- GR-DNA binding (GR [2]): constitutively inhibit glucocorticoid-induced GR-DNA binding
